Laboratory results reported in publication PMC11758220, “Identification of a Privileged Scaffold for Inhibition of Sterol Transport Proteins through the Synthesis and Ring Distortion of Diverse, Pseudo-Natural Products” (ACS Central Science, 2025).

What was measured:
ORP2 = biological target: T1, ORP2 (Homo sapiens, UniProt Q9H1P3); assay: Fluorescence polarisation (FP) competition with NBD-cholesterol, ORP2; format: binding; conditions: for ORP2 (FP) inhibition / inhibition at 10 µM: single dose, Dose = 10 µM; for IC50: mean of three experiments run in technical duplicates
T1 construct: ORP2(49-480); host or cells: E. coli BL21(DE3)
T1 sequence (Q9H1P3 49-480): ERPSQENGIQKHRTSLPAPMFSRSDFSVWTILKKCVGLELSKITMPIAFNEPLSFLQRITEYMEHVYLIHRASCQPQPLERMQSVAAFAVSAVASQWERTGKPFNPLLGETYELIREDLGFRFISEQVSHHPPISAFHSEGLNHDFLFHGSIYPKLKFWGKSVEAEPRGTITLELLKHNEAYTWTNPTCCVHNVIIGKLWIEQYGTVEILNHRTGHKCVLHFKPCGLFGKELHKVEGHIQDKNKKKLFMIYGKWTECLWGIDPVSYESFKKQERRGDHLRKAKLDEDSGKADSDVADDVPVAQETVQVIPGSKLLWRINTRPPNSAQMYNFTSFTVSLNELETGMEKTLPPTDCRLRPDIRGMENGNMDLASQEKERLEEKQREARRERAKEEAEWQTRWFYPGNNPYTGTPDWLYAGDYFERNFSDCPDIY
Excerpt: (§1) Protein expression constructs
(§2) Human ASTER domains of Aster-A(359-547), -B(364-552) and -C(318-504) were subcloned into a pGEX-6p-2rbs vector, thus introducing the cloning artifact ‘GPLGS’.3 The pGEX-6P-1-GST-OSBP(377- […]
(§3) a gift from James H. Hurley (University of California).4 The pHIS_2His6_Thrombin_STARD4(2-205;C75S) plasmid was a gift from Young Jun Im (Chonnam National University).5 STARD5A was a gift from Nicola Burgess-Brown (Addgene plasmid #42392; http://n2t.net/addgene:42392; […]
(§4) Protein expression and purification […]
(§5) vectors including an N-terminal PreScission-cleavable glutathione S-transferase (GST)-tag were expressed in Escherichia coli (E. coli) OverExpress C41 in Terrific Broth (TB) medium for 16 h at 18 °C after the induction with 0.1 mM isopropyl β-D-1-thiogalactopyranoside (IPTG). Cells were harvested at 3500 × g for 15 minutes and lysed by sonication in buffer containing 50 mM HEPES pH 7.5, 300 mM NaCl, 10 %v/v glycerol, 5 mM dithiothreitol (DTT), 0.1 %v/v Triton X-100 and protease inhibitor mix HP plus (Serva). The lysate was purified by affinity chromatography on a GSTrap FF column (Cytiva) using an ÄKTA Start (Cytiva) in buffer containing 50 mM HEPES pH 7.5, 300 mM NaCl, 10 %v/v glycerol, 5 mM DTT and 0.01 %v/v Triton X-100. The GST-tag was cleaved overnight on the column at 4 °C. The Aster sterol binding domains were further purified by size-exclusion chromatography (SEC) on a HiLoad 16/600 Superdex 75 pg (Cytiva) in buffer containing 20 mM HEPES pH 7.5, 300 mM NaCl, 10 %v/v […]
(§6) STARD5(6-213) harboring an N-terminal His6-Tag were expressed in E. coli BL21(DE3) in Luria-Bertani Broth (LB) medium for approximately 16 h at 18 °C after induction with 0.15 mM IPTG. Cells were harvested at 3500 × g for 15 minutes and lysed by sonication in buffer containing 50 mM HEPES pH 7.5, 150 mM NaCl, 5 %v/v glycerol, 5 mM DTT, 0.1 %v/v Triton X -100 and ethylenediaminetetraacetic acid (EDTA)-free protease inhibitor cocktail (Sigma-Aldrich). The cleared lysate was purified by affinity chromatography on a Ni-NTA Superflow Cartridge (Qiagen) using an ÄKTA Start (Cytiva) in buffer containing 50 mM HEPES pH 7.5, 150 mM NaCl, 5 %v/v glycerol, 5 mM DTT. START domains were eluted by using elution buffer containing 50 mM HEPES pH 7.5, 150 mM NaCl, 5 %v/v glycerol, 5 mM DTT and 500 mM imidazole. Proteins were further purified by SEC on a HiLoad 16/600 Superdex 75 pg (Cytiva) in buffer containing 20 mM HEPES pH 7.5, 150 mM NaCl, 5 %v/v glycerol and 2 mM DTT.
(§7) The ORP domain of human OSBP(377-807) in the pGEX-6p-1 vector with an N-terminal PreScission-cleavable GST-tag was expressed in E. coli OverExpress C41 in LB medium for 16 h at 18 °C after induction with 0.1 mM IPTG. Cells were harvested at 3500 × g for 15 minutes and lysed by sonication in buffer containing 20 mM HEPES pH 7.5, 300 mM NaCl, 10 %v/v glycerol, 5 mM DTT, 0.1 %v/v Triton X-100 and EDTA-free protease inhibitor cocktail (Sigma-Aldrich). The cleared lysate was purified by affinity chromatography on a GSTrap HF column (Cytiva) using an ÄKTA Start (Cytiva) in buffer containing 20 mM HEPES pH 7.5, 300 mM NaCl, 10 %v/v glycerol, 5 mM DTT. OSBP(377 -807) was eluted by using elution buffer containing 20 mM HEPES pH 7.5, 300 mM NaCl, 10 %v/v glycerol, 5 mM DTT and 10 mM reduced glutathione. Proteins were further purified by SEC on a HiLoad 16/600 Superdex 75 pg (Cytiva) using an ÄKTA Explorer (Cytiva) in buffer containing 20 mM HEPES pH 7.5, 150 mM NaCl, 10 %v/v glycerol and 2 mM DTT.
(§8) The ORP domains of human ORP1(534-950) in pET24b(+) and ORP2(49-480) in the pET24b(+) vector including an N-terminal His6-Tag were expressed in E. coli BL21(DE3) in TB medium for approximately 16 h at 18 °C after induction with 0.1 mM IPTG. Cells were collected at 3500 × g for 15 minutes and lysed by sonification in buffer containing 10 mM Tris-HCl pH 8, 300 mM NaCl, 5 % glycerol, 2 mM DTT, 0.1 % Triton X-100 and EDTA-free protease inhibitor cocktail (Sigma-Aldrich). The cleared […]

STARD5 = biological target: T2, STARD5 (Homo sapiens, UniProt Q9NSY2); assay: Differential scanning fluorimetry (DSF), STARD5; format: binding; conditions: for STARD5 (DSF) ΔTm / ΔTm at 10 µM: single dose, Dose = 10 µM; for Kd: apparent Kd, mean of three experiments run in technical duplicates, read-out: STARD5 Kd,app (DSF); for STARD5 (DSF) ΔTmmax: maximal thermal shift
T2 construct: STARD5(6-213); host or cells: E. coli BL21(DE3)
T2 sequence (Q9NSY2 6-213): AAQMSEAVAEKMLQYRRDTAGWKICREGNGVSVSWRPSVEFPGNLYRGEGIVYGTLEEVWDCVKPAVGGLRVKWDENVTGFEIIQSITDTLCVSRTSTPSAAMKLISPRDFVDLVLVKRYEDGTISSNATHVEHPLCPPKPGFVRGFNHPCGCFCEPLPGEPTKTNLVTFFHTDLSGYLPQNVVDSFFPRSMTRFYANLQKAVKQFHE
Excerpt: as §1, §2, §3, §4, §5, §6, §7, §8

| Compound | inhibition at 10 µM (ORP2) [%] | ΔTm at 10 µM (STARD5) [°C] | also measured |
| --- | --- | --- | --- |
| C[C@]12CC[C@@H](O)C[C@H]1CCc1c2[nH]c2ccc(Br)cc12 [Compound 10b] |  |  | ORP2 (FP) inhibition (ORP2): 21%; STARD5 (DSF) ΔTm (STARD5): 0.131 °C |
| C[C@]12CC[C@@H](O)C[C@H]1CCc1c2[nH]c2ccc(Cl)cc12 [Compound 10c] |  |  | ORP2 (FP) inhibition (ORP2): 32%; STARD5 (DSF) ΔTm (STARD5): 0.161 °C |
| C[C@]12CC[C@@H](O)C[C@H]1CCc1c2[nH]c2ccc(F)cc12 [Compound 10d] |  |  | ORP2 (FP) inhibition (ORP2): 42%; STARD5 (DSF) ΔTm (STARD5): 0.145 °C |
| Cc1ccc2[nH]c3c(c2c1)CC[C@@H]1C[C@H](O)CC[C@]31C [Compound 10e] | 50.6 | 0.2 |  |
| COc1ccc2[nH]c3c(c2c1)CC[C@@H]1C[C@H](O)CC[C@]31C [Compound 10f] | 36.5 | 0.159 |  |
| CC12CCC(O)CC1CCc1c2[nH]c2ccc(C(F)(F)F)cc12 (stereo not shown) [Compound 10g] | 57.7 | 0.162 |  |
| C[C@]12CC[C@@H](O)C[C@H]1CCc1c2[nH]c2ccc(I)cc12 [Compound 10h] |  |  | ORP2 (FP) inhibition (ORP2): 63.5%; STARD5 (DSF) ΔTm (STARD5): 0.241 °C |
| C[C@]12CC[C@@H](O)C[C@H]1CCc1c2[nH]c2c(F)cc(Cl)cc12 [Compound 10i] | 20 | 0.421 |  |
| Cc1cc(C)c2c3c([nH]c2c1)[C@@]1(C)CC[C@@H](O)C[C@H]1CC3 [Compound 10j] | 15 | -0.163 |  |
| CCOC(=O)c1ccc2[nH]c3c(c2c1)CC[C@@H]1C[C@H](O)CC[C@]31C [Compound 10k] |  |  | ORP2 (FP) inhibition (ORP2): 11%; STARD5 (DSF) ΔTm (STARD5): 0.2 °C |
| C[C@]12CC[C@@H](O)C[C@H]1CCC(=O)c1ccccc1NC2=O [Compound 11a] |  |  | ORP2 (FP) inhibition (ORP2): 6%; STARD5 (DSF) ΔTm (STARD5): 0.0733 °C |
| C[C@]12CC[C@@H](O)C[C@H]1CCC(=O)c1cc(Br)ccc1NC2=O [Compound 11b] | 2 | 0.3 |  |
| Cc1ccc2c(c1)C(=O)CC[C@@H]1C[C@H](O)CC[C@]1(C)C(=O)N2 [Compound 11c] | -1 | -0.119 |  |
| COc1ccc2c(c1)C(=O)CC[C@@H]1C[C@H](O)CC[C@]1(C)C(=O)N2 [Compound 11d] | 11 | 0.0281 |  |
| C[C@]12CC[C@@H](O)C[C@H]1CCC(=O)c1cc(C(F)(F)F)ccc1NC2=O [Compound 11e] | 5 | 0.115 |  |
| C[C@]12CC[C@@H](O)C[C@H]1CCC(=O)c1cc(Cl)cc(F)c1NC2=O [Compound 11f] |  |  | ORP2 (FP) inhibition (ORP2): 7%; STARD5 (DSF) ΔTm (STARD5): 0.154 °C |

| Compound | inhibition at 10 µM (ORP2) [%] | ΔTm at 10 µM (STARD5) [°C] | also measured |
| --- | --- | --- | --- |
| Cc1cc(C)c2c(c1)NC(=O)[C@@]1(C)CC[C@@H](O)C[C@H]1CCC2=O [Compound 11g] | -1 | 0.141 |  |
| Cc1ccc2[nH]c3c(c(=O)c2c1)C[C@@H]1C[C@H](O)CC[C@]31C [Compound 12] | 5 | 0.169 |  |
| Cc1ccc2c(c1)[C@]1(O)CC[C@@H]3C[C@H](O)CC[C@]3(C)C1=N2 [Compound 14a] | 53 | 0.5 |  |
| COc1ccc2c(c1)[C@]1(O)CC[C@@H]3C[C@H](O)CC[C@]3(C)C1=N2 [Compound 14b] | 25 | 0.049 |  |
| Cc1cc(C)c2c(c1)N=C1[C@@]2(O)CC[C@@H]2C[C@H](O)CC[C@]12C [Compound 14c] | 11 | 0.0425 |  |
| C[C@]12CC[C@@H]3C[C@H]1CC[C@@]21C(=Nc2ccccc21)O3 [Compound 15a] | 25 | 1.3 | Kd (STARD5): > 100 µM |
| CC12CCC3CC1CCC21C(=Nc2ccc(Cl)cc21)O3 (stereo not shown) [Compound 15c] | 47 | 0.56 | IC50 (ORP2): 22.2 µM |
| C[C@]12CC[C@@H]3C[C@H]1CC[C@@]21C(=Nc2ccc(F)cc21)O3 [Compound 15d] | 25 | 0.6 |  |
| Cc1ccc2c(c1)[C@@]13CC[C@@H]4C[C@@H](CC[C@@]41C)OC3=N2 [Compound 15e] | 38 | 0.8 |  |
| COc1ccc2c(c1)[C@@]13CC[C@@H]4C[C@@H](CC[C@@]41C)OC3=N2 [Compound 15f] | 73 | 0.268 |  |
| C[C@]12CC[C@@H]3C[C@H]1CC[C@@]21C(=Nc2ccc(C(F)(F)F)cc21)O3 [Compound 15g] | 60 | 0.9 | IC50 (ORP2): 8.41 µM |
| CC12CCC3CC1CCC21C(=Nc2c(Br)cc(C(F)(F)F)cc21)O3 (stereo not shown) [Compound 15h] | 49 | 0.2 | IC50 (ORP2): 9.6 µM |
| C[C@]12CC[C@@H]3C[C@H]1CC[C@@]21C(=Nc2c(F)cc(Cl)cc21)O3 [Compound 15i] | 41 | 0.109 |  |
| CC12CCC3CC1CCC21C(=Nc2ccc(NCc4ccccc4)cc21)O3 (stereo not shown) [Compound 19b] | 41 | 2.2 | Kd (STARD5): 19.3 µM; STARD5 (DSF) ΔTmmax (STARD5): 5.3 °C |
| CCCCCNc1ccc2c(c1)[C@@]13CC[C@@H]4C[C@@H](CC[C@@]41C)OC3=N2 [Compound 19c] | 38 | 1.3 | IC50 (ORP2): > 80 µM; Kd (STARD5): 20.9 µM; STARD5 (DSF) ΔTmmax (STARD5): 4.8 °C |
| CCCCN(C)c1ccc2c(c1)[C@@]13CC[C@@H]4C[C@@H](CC[C@@]41C)OC3=N2 [Compound 19d] | 51 | 4.5 | IC50 (ORP2): > 80 µM; Kd (STARD5): 11.9 µM; STARD5 (DSF) ΔTmmax (STARD5): 7.4 °C |
